Active and inactive are the calls of the source.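 Rule for the calls: active = compounds giving half or more protection of infected cells from virus-caused growth loss, again on retest; inactive = the rest.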
Test system: CEM cells HIV-1 protection, formazan growth assay
Assay: NCI AIDS Antiviral Assay
Conditions: for IC50: measured here: growth of uninfected CEM cells
How it was run: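 Steps: treat uninfected and HIV-1-infected human CEM cells at five drug levels; quantify growth by soluble formazan; retest any compound reaching 50% protection; classify actives from the retest.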

CCCCCCCCCC=C(c1cc(Br)c(OC)c(C(=O)OC)c1)c1cc(Br)c(OC)c(C(=O)OC)c1
EC50: > 29.5 µM
IC50: > 29.5 µM

O=C1NC2OC(CO)C(O)C2O1 (configuration not stated)
EC50: > 200 µM
IC50: > 200 µM

CCOC(=O)Nc1nc2ccc(Cn3cccc3)cc2[nH]1
EC50: > 13.2 µM
IC50: 0.794 µM

COC(=O)C1=C(C(=O)OC)C2C(C)=CC(C)=CN2C(C(=O)OC)=C1C(=O)OC (configuration not stated)
EC50: > 200 µM
IC50: > 200 µM

Clc1ccc(OCc2nnc(CCCCCCCCc3nnc(COc4ccc(Cl)cc4Cl)o3)o2)c(Cl)c1
EC50: > 200 µM
IC50: 129 µM

C=CCCCCCCCCCP(=O)(c1ccccc1)c1ccc2c(c1)OCCOCCOCCOCCO2 (configuration not stated)
EC50: > 200 µM
IC50: 1.7 µM

O=[N+]([O-])c1ccccc1Nc1ccccc1
outcome: inactive

COc1cccc(C2c3cc4c(cc3OC(NNc3ccccc3)C2C)OCO4)c1O (configuration not stated)
EC50: > 200 µM
IC50: 11.2 µM

NC1CCC(N(CC(=O)O)CC(=O)O)C(N(CC(=O)O)CC(=O)O)C1 (configuration not stated)
EC50: > 200 µM
IC50: 112 µM

CN(C)C=Nc1c2ccccc2nc2ccccc12
EC50: > 200 µM
IC50: 2.45 µM

O=C(Nc1nc(C23CC4CC(CC(C4)C2)C3)cs1)c1cc2ccccc2oc1=O
EC50: > 200 µM
IC50: > 200 µM

CC12CCC(CC(=O)/C1=C(/Br)I)C2(C)C (configuration not stated)
EC50: > 200 µM
IC50: 36.3 µM

CC(C)(C)C(=O)/C=C/c1ccc(Oc2ccccc2)cc1
EC50: > 25.7 µM
IC50: > 25.7 µM

O=C1OCCOCCOCCOCCOCCOCCOC(=O)c2cccc1n2
EC50: > 107 µM
IC50: 56.2 µM

O=P(O)(O)OP(=O)(O)O
EC50: 182 µM
IC50: > 200 µM

CCCCCCCCCCCCC(SCCNC(=O)CCNC(=O)C(O)C(C)(C)COP(=O)(O)OP(=O)(O)OCC1OC(n2cnc3c(N)ncnc32)C(O)C1OP(=O)(O)O)C(=O)NCC(N)=O (configuration not stated)
outcome: inactive

O=C1C[C@@H](c2ccccc2)O[C@@H](c2ccccc2)C1
EC50: > 200 µM
IC50: 112 µM

CCN(CC)CCNc1ccc([N+](=O)[O-])c2nc3ccc(OC)cc3c(N)c12
EC50: > 200 µM
IC50: 0.331 µM

COc1ccc2c(c1OC)C(C=C(c1ccccc1)c1ccccc1)CN(C)C2 (configuration not stated)
EC50: > 93.3 µM
IC50: 15.8 µM

[N-]=[N+]=Nc1ccc(CCN2CCN(c3cccc(C(F)(F)F)c3)CC2)cc1I
outcome: inactive

CN(C)CCN1C(=O)CN=C(c2ccccc2Cl)c2cc(Cl)ccc21
EC50: > 200 µM
IC50: 117 µM

O=C1C2C=CC(C3C=CC2N(Cc2ccccc2)C3=O)N1Cc1ccccc1
outcome: inactive

CCn1ncc2c(=O)n3ncn(-c4ccc(Br)cc4)c3nc21
outcome: inactive

Cc1nc2ccccc2c(=O)n1NC(=O)c1ccccc1O
EC50: > 200 µM
IC50: 38 µM

NC(CSS(=O)(=O)c1ccccc1)C(=O)O (configuration not stated)
EC50: > 200 µM
IC50: > 200 µM

Cc1cc2occ(C)c(=O)c2c2c1OC(C)(C)S2
EC50: > 100 µM
IC50: 51.3 µM

COc1cc(-c2cc(O)c(-c3ccc4ccccc4n3)c(=O)[nH]2)cc(OC)c1OC
EC50: > 0.933 µM
IC50: > 0.933 µM

O=C(O)c1ccccc1C(=O)Nn1cnnc1
EC50: > 200 µM
IC50: > 200 µM

CC1CC(C)(C)S(=O)(=O)O1 (configuration not stated)
EC50: > 200 µM
IC50: > 200 µM

CN(C)C(=O)N(CCC#N)CCN(C(=O)N(C)C)c1ccccc1
EC50: > 200 µM
IC50: > 200 µM

Cn1ncc2c(=O)[nH]cnc21
EC50: > 316 µM
IC50: > 316 µM

C=CC12CCC(CC1)n1c(=O)n(C)c(=O)n12
EC50: > 200 µM
IC50: > 200 µM

CC1C2CC(CC2=O)C1(C)C (configuration not stated)
EC50: > 1620 µM
IC50: > 1620 µM

COc1ccc(C[C@H]2C(=O)OC[C@@H]2Cc2ccc(OC)c(OC)c2)cc1O
EC50: > 200 µM
IC50: 70.8 µM

Cc1ccc(/C=C2\CCCCC2=O)cc1
outcome: inactive

c1ccc(Cc2nc(Cc3n[nH]c(Cc4ccccc4)n3)n[nH]2)cc1
EC50: > 200 µM
IC50: > 200 µM

S=C1C=C(c2ccccc2)Sc2ccccc2N1
EC50: > 200 µM
IC50: 60.3 µM

CNC(=O)O/N=C/c1cccc(/C=N/OC(=O)NC)c1
EC50: > 200 µM
IC50: > 200 µM

C=CCOc1cc2c(c3oc(=O)cc(CCC)c13)[C@@H](O)[C@H](C)[C@@H](C)O2
EC50: 6.61 µM
IC50: 13.5 µM

COC(=O)[C@]1(C)CC[C@]2(C)CC[C@]3(C)C4CC[C@@]5(COC(C)=O)C(CCC(=O)[C@@H]5C)[C@]4(C)CCC3(C)[C@@H]2C1 (some centres not stated)
EC50: > 33.9 µM
IC50: 15.8 µM

Cc1c([N+](=O)[O-])c(=O)oc2c1ccc1occc(=O)c12
EC50: > 132 µM
IC50: 117 µM

COc1ccc(-c2c(C(=O)Nc3ccccc3)c(-c3ccccc3)n(C3OC(CO)C(O)C(O)C3O)c(=S)c2C#N)cc1 (configuration not stated)
EC50: > 200 µM
IC50: 107 µM

COC(=O)C1=C2Nc3ccccc3C23CCN2C(=O)C[C@H](C1)[C@@H]23 (some centres not stated)
outcome: inactive

CN(C1=NCCO1)c1cccc2ccccc12
EC50: > 200 µM
IC50: 129 µM

O=C(OCCN1CCNCC1)c1cc2ccccc2[nH]1
EC50: > 200 µM
IC50: 26.9 µM

c1ccc(OCc2nnc(CCCCCCCCc3nnc(COc4ccccc4)o3)o2)cc1
EC50: > 200 µM
IC50: > 200 µM

CC(C)NC1CCCCC2c3cc(F)ccc3[C@]12O (some centres not stated)
EC50: 60.3 µM
IC50: > 200 µM

CC(C)(C)C(=O)OCOP(=O)(OCCOCn1cnc2c(=O)[nH]c(N)nc21)OCOC(=O)C(C)(C)C
outcome: inactive

CC(=O)Nc1ccc(-c2nnc(SCC(=O)Nc3ccc([N+](=O)[O-])cc3)o2)cc1
EC50: > 45.7 µM
IC50: 7.94 µM

CC(C)=CCOC(=O)C(C)=[N+]=[N-]
EC50: > 200 µM
IC50: 170 µM

CCOC(=O)CCC(NC(=O)c1ccc(Oc2nc3ccccc3nc2C(=O)OCC)cc1)C(=O)OCC (configuration not stated)
EC50: > 200 µM
IC50: > 200 µM

O=c1[nH]nnc2c1sc1ncccc12
EC50: > 200 µM
IC50: > 200 µM

CCOC(=O)/C(C#N)=C\c1ccc([N+](=O)[O-])o1
EC50: > 1050 µM
IC50: > 1050 µM

Cn1c(=O)c([N+](=O)[O-])c2[nH]ncn2c1=O
EC50: > 200 µM
IC50: > 200 µM

C=C(CN(C)C)C1(c2ccccc2)CC2(CCCC2)C(=O)O1 (configuration not stated)
EC50: > 200 µM
IC50: 38 µM

O=[N+]([O-])c1ccc(Nc2ccccc2)c2nonc12
EC50: > 87.1 µM
IC50: 41.7 µM

CC(=O)c1ccc(NC(=O)/C(CC(=O)/C=C/c2ccccc2)=N/NC(N)=S)cc1
EC50: > 63.1 µM
IC50: > 63.1 µM

O=C(Cn1nc(Br)c(Br)c1Br)c1ccccc1
EC50: > 200 µM
IC50: 19.5 µM

O=c1[nH]c2ccccc2c2oc3ccccc3c12
EC50: > 200 µM
IC50: > 200 µM

CC1(c2ccc(F)cc2)OC(=O)c2c1ccc1ccccc21 (configuration not stated)
outcome: inactive

O=c1[nH]c(-c2ccccc2)nc2cc([N+](=O)[O-])c(/C(Cl)=C/c3ccccc3)cc12
outcome: inactive

COc1ccc(N=NC(=O)NC(CC(C)C)C(=O)NC(CC(C)C)C(=O)O)cc1 (configuration not stated)
EC50: > 200 µM
IC50: 7.24 µM

O=C(O)c1c(O)c2cc([N+](=O)[O-])ccc2oc1=O
EC50: > 324 µM
IC50: > 324 µM

CC(=Nc1ccccc1S)c1c(O)ccc2c(C)cc(=O)oc12
EC50: > 11.5 µM
IC50: > 11.5 µM

Nn1c(Cc2ccc([N+](=O)[O-])cc2)n[nH]c1=O
EC50: > 200 µM
IC50: > 200 µM

O=C1C(c2c[nH]c3ccccc23)=Nc2ccc(Br)cc21
EC50: > 20 µM
IC50: 5.89 µM

— PubChem BioAssay AID179 (DTP/NCI, 2004)
